For one series, the target named is T1, CXCR2 (Homo sapiens, UniProt P25025).
T1 sequence (P25025 1-360): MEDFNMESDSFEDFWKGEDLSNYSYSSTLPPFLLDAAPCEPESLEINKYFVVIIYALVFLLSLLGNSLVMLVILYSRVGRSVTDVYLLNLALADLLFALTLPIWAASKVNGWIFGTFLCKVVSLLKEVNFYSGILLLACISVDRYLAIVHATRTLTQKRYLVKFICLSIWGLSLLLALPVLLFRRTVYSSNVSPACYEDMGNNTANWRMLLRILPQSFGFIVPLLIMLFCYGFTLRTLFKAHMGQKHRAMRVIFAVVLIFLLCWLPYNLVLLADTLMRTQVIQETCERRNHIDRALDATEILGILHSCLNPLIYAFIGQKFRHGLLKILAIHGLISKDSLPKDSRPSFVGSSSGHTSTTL
As to conditions: cited from earlier work; for Ki: binding affinity, reported.

A further series concerns the target T2, CX3CR1 (Homo sapiens, UniProt P49238).
T2 sequence (P49238 1-355): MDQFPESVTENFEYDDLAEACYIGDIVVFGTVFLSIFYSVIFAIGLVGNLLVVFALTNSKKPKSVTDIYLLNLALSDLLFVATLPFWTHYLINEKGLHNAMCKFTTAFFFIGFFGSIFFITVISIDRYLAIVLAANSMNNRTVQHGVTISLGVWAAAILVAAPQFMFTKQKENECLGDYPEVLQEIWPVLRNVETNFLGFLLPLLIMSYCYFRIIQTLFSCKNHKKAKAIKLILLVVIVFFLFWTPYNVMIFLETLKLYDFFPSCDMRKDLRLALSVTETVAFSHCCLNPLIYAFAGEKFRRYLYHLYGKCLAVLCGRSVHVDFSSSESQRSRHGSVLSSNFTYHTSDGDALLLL
The settings on record: binding affinity, reported; cited from earlier work.

The nature of series [1]: small animal PET imaging of 2-[18F]FBTTP in healthy mice. The class given is in vivo. As to conditions: 350 μCi via tail vein, PET at 10 min, 30 min, 1 hour and 2 hours post-injection. The method, then: (R)-2-((2-amino-5-mercaptothiazolo[4,5-d]pyrimidin-7-yl)amino)-4-methylpentan-1-ol was synthesized as previously reported (Karlstrom et al., 2013) and alkylated with 2-[^18F]fluoro-benzylbromide to produce 2-[^18F]FBTTP. 2-[^18F]fluorobenzylbromide was prepared by a one-pot microwave radiofluorination of 2-formyl-N,N,N-trimethylbenzenanilinium triflate followed by sodium borohydride reduction, and bromination with 48% HBr using a procedure analogous to that reported for the preparation of 4-[^18F]fluoro-benzylbromide (Cho et al., 2012; Ravert et al., 2014). 2-[^18F]FBTTP (350 μCi) was injected via the tail vein of healthy mice and imaged using small animal PET. Images were collected at 10, 30, 60, and 120 min post-injection. 2-[^18F]FBTTP was prepared in a decay corrected yield of 10.2% in a specific activity of 1500 Ci/mmol (55,500 GBq/mmol) in a total synthesis time of 110 min.
To evaluate in vivo pharmacokinetics of 2-[^18F]FBTTP, 350 μCi of the radiotracer was formulated in 200 μL of saline with 10% ethanol and injected into healthy mice via the tail vein. The images were collected at 10 min, 30 min, 1 hour and 2 hours post-injection.

With `CC(C)C[C@H](CO)Nc1nc(SCc2ccc(Br)cc2F)nc2nc(N)sc12` [Compound 9f, (R)-2-((2-amino-5-((4-bromo-2-fluorobenzyl)thio)thiazolo[4,5-d]pyrimidin-7-yl)amino)-4-methylpentan-1-ol], the inhibitory constant (Ki) (in general, a dissociation constant, usually derived from enzyme kinetics or from competition with a known ligand) at CXCR2 is 1.4 µM.
Take `CC(C)C[C@H](CO)Nc1nc(SC(C)c2ccccc2F)nc2nc(N)sc12` (stereo partly drawn) [Compound 9e, (2R)-2-((2-amino-5-((1-(2-fluorophenyl)ethyl)thio)thiazolo[4,5-d]pyrimidin-7-yl)amino)-4-methylpentan-1-ol]: the inhibitory constant (Ki) on CX3CR1 was 0.0047 µM; at CXCR2, 1.4 µM.
Take `CC(C)CC(CO)Nc1nc(SCc2ccccc2[18F])nc2nc(N)sc12` (centres unmarked) [2-[^18F]FBTTP, 2-((2-amino-5-((2-[18F]fluorobenzyl)thio)thiazolo[4,5-d]pyrimidin-7-yl)amino)-4-methylpentan-1-ol]: in series [1], the in vivo pharmacokinetics entry is recorded as “favorable in vivo pharmacokinetics”.
In the case of `CC(C)C[C@H](CO)Nc1nc(SCc2ccccc2F)nc2nc(N)sc12` [Compound 9d, (R)-2-((2-amino-5-((2-fluorobenzyl)thio)thiazolo[4,5-d]pyrimidin-7-yl)amino)-4-methylpentan-1-ol], the “selectivity over CXCR2” value on CXCR2 (CX3CR1 over CXCR2) is reported as 18 fold.

The record behind these values is patent US20180222922A1, “RADIOFLUORINATED 7-AMINO-5-THIO-THIAZOLO[4,5-D]PYRIMIDINES FOR IMAGING FRACTALKINE RECEPTOR (CX3CR1)” (THE JOHNS HOPKINS UNIVERSITY, priority 2015, published 2018).
